# Read-outs that look alike come from different tables or passages of the source.
# Experiments:
# bovine coronary artery = experiment: Vasorelaxant activity in bovine coronary artery rings precontracted with U-46619; format: cell-based; settings: for Vascular Relax. % (10 μM) / activation at 10 µM: 100% relaxation = basal pre-U-46619 tension; for EC50: bovine coronary artery, read-out: Vascular Relax. EC50; for activation at 10 µM: read-out: Vascular Relax. % (10 μM)
# Method: Vasorelaxant activity was measured in bovine coronary artery. Bovine hearts were obtained and the left anterior descending coronary artery was dissected and cleaned of connective tissue. Vessels of 1 mm diameter were cut into rings of 3 mm width as previously described (3, 27, 39). […] The vessels were suspended from a pair of stainless steel hooks in a 6-ml water-jacketed organ chamber. […] One hook was anchored to a steel rod and the other hook to a force transducer (model FT-03C; Grass Instruments, West Warwick, R.I.). Tension of the vessel was measured by an ETH-400 bridge amplifier, and the data were acquired with a MacLab 8e analog-to-digital converter and MacLab software version 3.5.6 (AD Instruments, Milford, Mass.) and stored on a Macintosh computer for subsequent data analysis.
# Basal tension was set at the length-tension maximum of 3.5 g and equilibrated for 1.5 h. KCl (40 mM) was added to the chamber until reproducible maximal contractions were maintained. […] Cumulative additions of compounds were added to the chamber. Between concentration-response curves, the chambers were rinsed with fresh Krebs buffer, 40 mM KCl was administered to determine the maximum contraction, and the vessels were rinsed. Consecutive concentration-response curves were performed with 14,15-EET followed by a concentration-response curve to a compound. The experiment was always repeated with the order of the agonists reversed. […] The relaxation was plotted versus compound concentration and the EC50 determined utilizing statistical software.
# Human recombinant sEH = Human recombinant sEH (Homo sapiens (Human), UniProt P34913); experiment: Soluble epoxide hydrolase inhibition (PHOME fluorescent substrate); format: biochemical; settings: Table 1 head prints μM (Table 2 prints nM for same numbers); read-out: sEHi IC50
# Sequence of Human recombinant sEH (P34913 whole entry): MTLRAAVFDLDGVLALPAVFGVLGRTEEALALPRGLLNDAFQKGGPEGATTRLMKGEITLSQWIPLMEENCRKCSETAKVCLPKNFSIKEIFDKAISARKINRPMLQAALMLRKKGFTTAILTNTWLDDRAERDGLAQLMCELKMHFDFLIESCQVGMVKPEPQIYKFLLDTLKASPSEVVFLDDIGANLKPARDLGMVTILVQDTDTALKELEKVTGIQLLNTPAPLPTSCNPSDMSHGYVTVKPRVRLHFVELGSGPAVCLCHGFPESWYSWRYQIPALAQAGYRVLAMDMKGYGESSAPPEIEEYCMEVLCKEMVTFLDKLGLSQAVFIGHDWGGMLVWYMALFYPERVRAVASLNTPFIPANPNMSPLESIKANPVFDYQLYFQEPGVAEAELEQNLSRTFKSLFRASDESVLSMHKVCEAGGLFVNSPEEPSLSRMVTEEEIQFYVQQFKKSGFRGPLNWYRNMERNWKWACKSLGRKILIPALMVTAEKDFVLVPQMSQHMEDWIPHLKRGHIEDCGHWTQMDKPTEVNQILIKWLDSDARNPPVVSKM
# Method: Compounds were tested for their ability to inhibit recombinant soluble epoxide hydrolase (sEH) protein. The assay utilizes (3-Phhenyl-oxiranyl)-acetic acid cyano-(6-methoxy-naphthalen-2-yl)-methyl ester (PHOME), a sensitive substrate for sEH that can be used to monitor the activity of both human and murine enzymes. […] Human recombinant sEH was incubated with substrate and compounds ranging in concentration from 0.1 to 1000 nM.
SMILES,Vascular Relax. % (10 μM) (bovine coronary artery) [%],EC50 (bovine coronary artery) [nM],IC50 (Human recombinant sEH) [µM],EC50 (bovine coronary artery; Bos taurus) [nM],activation at 10 µM (bovine coronary artery; Bos taurus) [%]
"CCCCCCC(=O)N(CCCC/C=C\CCCCCCC(=O)OCCOCCOCCO)C(C)C [Compound 1, 2-(2-(2-Hydroxyethoxy)ethoxy)ethyl 13-(N-isopropylheptanamido)tridec-8(Z)-enoate]",86,2900,> 0.5,,
"CCCCCNC(=O)NCCCC/C=C\CCCCCCC(=O)OCCOCCOCCO [Compound 2, 2-(2-(2-Hydroxyethoxy)ethoxy)ethyl 13-(3-n-pentylureido)tridec-8(Z)-enoate]",72,5100,,,
"CCCCNC(=O)C(=O)NCCCC/C=C\CCCCCCC(=O)OCCOCCOCCO [Compound 3, 2-(2-(2-Hydroxyethoxy)ethoxy)ethyl13-(2-(n-butylamino)-2 oxoacetamido)tridec-8(Z)-enoate]",104,1500,> 0.5,,
"CCCCCNC(=O)NCCCC/C=C\CCCCOCC(=O)O [Compound 4, 2-(10-(3-n-Pentylureido)dec-5(Z)-enyloxy)acetic acid]",49,,0.237,630,
"CCCCCCC(=O)N(CCCC/C=C\CCCCCCC(=O)NCC(=O)O)C(C)C [Compound 5, 2-(13-(N-Isopropylheptanamido)tridec-8(Z)-enamido)acetic acid]",95,,,1900,
"CCCCCN(C)C(=O)N(C)CCCC/C=C\CCCCCCC(=O)NCC(=O)O [Compound 6, 2-(13-(1,3-Dimethyl-3-n-pentylureido)tridec-8(Z)-enamido)acetic acid]",92,,> 0.5,2750,
"CCCCCNC(=O)NCCCC/C=C\CCCCCCC(=O)NS(=O)(=O)c1ccccc1 [Compound 8, 13-(3-n-Pentylureido)-N-(phenylsulfonyl)tridec-8(Z)-enamide]",73,,0.041,6000,
"CCCCCNC(=O)NCCCC/C=C\CCCCCCC(=O)NS(C)(=O)=O [Compound 9, N-(Methylsulfonyl)-13-(3-n-pentylureido)tridec-8(Z)-enamide]",61,,0.071,6700,
CCCCCNC(=O)NCCCC/C=C\CCCCCCP(=O)([O-])[O-].[Na+].[Na+] [Compound 10],71,,> 0.5,> 10000,
CCCCCNC(=O)NCCCC/C=C\CCCCCCS(=O)(=O)[O-].[Na+] [Compound 11],63,,0.057,7600,
"CCCCCNC(=O)NCCCC/C=C\CCCCCNS(=O)(=O)c1ccccc1 [Compound 12, N-(11-(3-n-Pentylureido)undec-6(Z)-enyl)benzenesulfonamide]",,,0.032,3400,75
"CCCCCNC(=O)NCCCC/C=C\CCCCCSc1ccccc1O [Compound 13, 1-(11-(2-Hydroxyphenylthio)undec-5(Z)-enyl)-3-n-pentylurea]",,,0.006,> 10000,48
"CCCCCNC(=O)NCCCC/C=C\CCCCCS(=O)(=O)c1ccccc1O [Compound 14, 1-(11-(2-Hydroxyphenylsulfonyl)undec-5(Z)-enyl)-3-n-pentylurea]",,,,5000,76
"CCCCCNC(=O)NCCCC/C=C\CCCCCSc1nnn[nH]1 [Compound 15, 1-(11-(1H-Tetrazol-5-ylthio)undec-5(Z)-enyl)-3-pentylurea]",,,0.022,3700,85
CCCCCNC(=O)NCCCC/C=C\CCCCCSc1ncn[nH]1 [Compound 16],,,0.032,9800,53
CCCCCNC(=O)NCCCC/C=C\CCCCC[S+]([O-])c1ncn[nH]1 (stereo not shown) [Compound 17],,,0.096,3500,92
CCCCCNC(=O)NCCCC/C=C\CCCCCS(=O)(=O)c1ncn[nH]1 [Compound 18],,,0.023,3100,92
CCCCCCC(=O)N(CCCC/C=C\CCCCCCc1nnn[nH]1)C(C)C [Compound 19],74,,,1000,
CCCCNC(=O)C(=O)NCCCC/C=C\CCCCCCc1nnn[nH]1 [Compound 21],96,,> 0.5,1700,
"CCCCCNC(=O)NCCCC/C=C\CCCCCCCc1nnn[nH]1 [Compound 22, 1-(13-(1H-Tetrazol-5-yl)tridec-5(Z)-enyl)-3-n-pentylurea]",110,,0.032,1100,
CCCCCNC(=O)NCCCC/C=C\CCCCCCc1noc(=O)[nH]1 [Compound 23],89,,0.065,1100,
"CCCCCNC(=O)NCCCC/C=C\CCCCCC1SC(=O)NC1=O (stereo not shown) [Compound 24, 1-(11-(2,4-Dioxothiazolidin-5-yl)undec-5(Z)-enyl)-3-n-pentylurea]",,,0.057,> 10000,47
CCCCCNC(=O)NCCCC/C=C\CCCCCCC1=NOS(=O)N1 (stereo not shown) [Compound 25],109,,0.01,340,
CCCCNC(=O)C(=O)NCCCC/C=C\CCCCCCC1=NOS(=O)N1 (stereo not shown) [Compound 27],,,> 0.5,360,116
CCCCCNC(=O)NCCCC/C=C\CCCCCCc1noc(=S)[nH]1 [Compound 28],93,,0.031,3300,
CCCCCNC(=O)NCCCC/C=C\CCCCCCc1nsc(=O)[nH]1 [Compound 29],54,,0.231,2400,
"CCCCCNC(=O)NCCCCCOc1cccc2sc(NC(C)=O)nc12 [Compound 31, N-(4-(5-(3-n-Pentylureido)pentyloxy)benzo[d]thiazol-2-yl)acetamide]",73,,> 0.5,900,
CCCCNC(=O)C(=O)NCCCCCOc1cccc2sc(NC(C)=O)nc12 [Compound 32],96,,,2400,
